# Data published in patent US20120071475A1, “UREA DERIVATIVES HAVING PI3K-INHIBITING ACTIVITY” (SHIONOGI & CO., LTD., priority 2009, published 2012).
# What was measured:
# PI3Kγ = PI3Kγ (Homo sapiens, UniProt P48736); experiment: PI3Kγ inhibitory activity (PI3-kinase HTRF assay, inhibition ratio); format: biochemical; conditions: 0.5 h, compound at 10 μmol/L; read-out: PI3Kg Inhibition Ratio % (10 μM)
# Outline: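 Compound at 10 μmol/L preincubated 10 min with PI3Kγ and PIP2 substrate, then reacted with ATP for 30 minutes at room temperature; the compound, substrate and ATP figures as printed (40 μmol/L each) are solution concentrations. HTRF 665/620 nm ratio read after 18 hours. Inhibition ratio calculated against no-compound (100%) and no-enzyme (0%) controls.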
# [1] = Metabolic stability test (pooled human liver microsome); format: in vitro ADME; conditions: percentage of test compound remained after 30 minutes, pooled human liver microsome 0.5 mg protein/mL, 1 mmol/L NADPH, 37° C., compound 0.5 μM
# Outline: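 Pooled human liver microsomes (0.5 mg protein/mL) incubated with compound and 1 mmol/L NADPH at 37° C. in pH 7.4 Tris buffer for 0 or 30 min. Parent quantified by LC/MS/MS after methanol/acetonitrile quench; value is % remaining at 30 min versus 0 min.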
# hERG channel (IKr) = target: T1, hERG channel (IKr) (Homo sapiens, UniProt Q12809); experiment: hERG test (whole-cell patch-clamp, IKr in HEK293 cells); format: cell-based; conditions: human, HEK293 cells expressing hERG channel, pH 7.4, inhibition of maximum tail current (IKr), compound 1 μM
# T1 construct: expressed in transfected cells; host or cells: HEK293
# Outline: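 hERG-expressing HEK293 cells, automated whole-cell patch clamp: hold −80 mV, +50 mV for 2 s, then −50 mV for 2 s to record IKr tail current. Compound in extracellular solution (pH 7.4) for 10 min at room temperature; inhibition of maximum tail current calculated versus pre-application and compared with 0.1% DMSO vehicle.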
# [2] = tested on: CYP1A2, CYP2C9, CYP2C19, CYP2D6 and CYP3A4 (one value for the five species); experiment: CYP inhibition test, five CYP species together (5CYPs_IC50; pooled human liver microsome); format: in vitro ADME; conditions: human, microsomes
# Description: O-de-ethylation of 7-ethoxyresorufin (CYP1A2), methyl-hydroxylation of tolbutamide (CYP2C9), 4′-hydroxylation of mephenyloin (CYP2C19), O-demethylation of dextromethorphan (CYP2D6), and hydroxylation of terfenadine (CYP3A4), which are typical substrate for metabolic reactions of human main CYP5 molecular species (CYP1A2, 2C9, 2C19, 2D6, and 3A4), were adopted as indexes.
# The reaction conditions are as follows: substrate: 0.5 μmol/L of ethoxyresorufin (CYP1A2), 100 μmol/L of tolbutamide (CYP2C9), 50 μmol/L of S-mephenyloin (CYP2C19), 5 μmol/L of dextromethorphan (CYP2D6), and 1 μmol/L of terfenadine (CYP3A4); reaction time; 15 minutes; reaction temperature: 37° C.; enzyme: pooled human liver microsome 0.2 mg protein/mL; test drug concentration: 1, 5, 10, and 20 μmol/L (4 points).
# In a 96-well plate, as a reaction solution, five kinds of substrates, a human liver microsome, and a test drug were added to 50 mmol/L Hepes buffer solution in the aforementioned ratio. A coenzyme NADPH was added to start a metabolic reaction, which is an index. After reacting at 37° C. for 15 minutes, a solution of methanol/acetonitrile (1/1 (v/v)) was added to quench the reaction. After centrifugation at 3000 rpm for 15 minutes, resorufin (CYP1A2 metabolite) in the supernatant was quantitated with a fluorescence multilabel counter, and hydroxylated tolbutamide (CYP2C9 metabolite), 4′-hydroxylated mephenyloin (CYP2C19 metabolite), […], terfenadine in alcohol form (CYP3A4 metabolite) were quantitated with LC/MS/MS.
# The case wherein only DMSO (a solvent which dissolved a drug) was added to a reaction system was defined as a control (100%). When a test drug solution was added, the remaining activity (%) at each concentration was calculated, and then IC50 was calculated with a concentration and an inhibition ratio by an inverse estimation using a logistic model.
# CYP3A4 = target: T2, CYP3A4 (Homo sapiens, UniProt P08684); experiment: CYP3A4 fluorescence MBI test; format: in vitro ADME; conditions: difference in IC50 with 0 or 30 minutes pre-reaction; CYP3A4 expressed in E. coli, substrate 7-BFC
# T2 construct: host or cells: E. coli
# Outline: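 E. coli-expressed CYP3A4 debenzylating 5.6 μmol/L 7-BFC to fluorescent 7-HFC (Ex 420/Em 535 nm) in K-Pi pH 7.4 at 25° C, 15 min reaction. NADPH pre-incubation of 0 or 30 min, with 10-fold dilution before reaction. IC50 from 0.625–20 μmol/L (6 points); (+) for an IC50 shift ≥5 μmol/L, (−) for ≤3 μmol/L.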
# AKT phosphorylation = AKT phosphorylation inhibitory activity in MCP-1 stimulated THP-1 cells (sandwich ELISA); format: cell-based, Human; conditions: Homo sapiens, compound at 1 μmol/L, MCP-1 stimulation, read-out: AKT phosphorylation inhibition ratio
# Protocol: (1) The AKT phosphorylation inhibitory activity of a compound was evaluated according to the following procedure. (2) Human monocyte-like cell line THP-1 was washed with RPMI-1640 media, incubated in the presence of 5% CO2 at 37° C. for 3 hours, washed with Hank's balanced salt solution (HBSS), adjusted to a cell concentration of 6.7×10^6/mL, and then used in an experiment. (3) 30 μL of the cell suspension and 60 μL of each compound solution containing 0.2% DMSO/HBSS were mixed and then preincubated at 37° C. for 5 minutes. 30 μL of HBSS containing 1.2 μg/mL of MCP-1 was added thereto and then incubated for 60 seconds at 37° C. (4) 30 μL of a cell lysate (the final concentrations: 20 mmol/L Tris-HCl (pH 7.5), 150 mmol/L NaCl, 1 mmol/L EDTA, 1 mmol/L EDTA, 1% Triton X-100, 2.5 mmol/L sodium pyrophosphate, 1 mmol/L β-glycerophosphate, 1 mmol/L Na3VO4, 1 μg/ml leupeptin, 50 nmol/L APMSF) was added thereto to lyse cells. (5) The amount of AKT phosphorylation in the cell solution was measured by sandwich ELISA method using anti-Phospho-Akt (Ser473) antibody and anti-AKT1 antibody. (6) Anti-Phospho-Akt (Ser473) antibodies or anti-AKT1 antibodies were immobilized onto the solid phase of a micro well plate. The prepared cell lysate was added to the micro well plate, incubated, and then washed with ELISA wash solution. (7) An anti-AKT1 antibody or anti-Phospho-Akt (Ser473) antibody, which forms a counterpart to an antibody immobilized on the solid phase, was added thereto, incubated, washed similarly, and then reacted with an HRP-labeled anti-mouse IgG antibody. (8) After incubating for 30 minutes and then washing similarly, 100 μL of TMB (3,3′,5,5″-tetramethylbenzidine) was added thereto, followed by reacting for 30 minutes. (9) 100 μL of stop solution was added to quench the color reaction, and then the absorbance at 450 nm was measured. (10) The amount of AKT phosphorylation in a sample in the absence of a compound was defined as 100% activity, and the amount of AKT phosphorylation in a sample in the absence of MCP-1 was defined as 0% activity to calculate an inhibition ratio of each compound. The measurement was performed for a 1 μmol/L solution of each compound.
# PI3Kγ, sequence (P48736 whole entry, species assumed): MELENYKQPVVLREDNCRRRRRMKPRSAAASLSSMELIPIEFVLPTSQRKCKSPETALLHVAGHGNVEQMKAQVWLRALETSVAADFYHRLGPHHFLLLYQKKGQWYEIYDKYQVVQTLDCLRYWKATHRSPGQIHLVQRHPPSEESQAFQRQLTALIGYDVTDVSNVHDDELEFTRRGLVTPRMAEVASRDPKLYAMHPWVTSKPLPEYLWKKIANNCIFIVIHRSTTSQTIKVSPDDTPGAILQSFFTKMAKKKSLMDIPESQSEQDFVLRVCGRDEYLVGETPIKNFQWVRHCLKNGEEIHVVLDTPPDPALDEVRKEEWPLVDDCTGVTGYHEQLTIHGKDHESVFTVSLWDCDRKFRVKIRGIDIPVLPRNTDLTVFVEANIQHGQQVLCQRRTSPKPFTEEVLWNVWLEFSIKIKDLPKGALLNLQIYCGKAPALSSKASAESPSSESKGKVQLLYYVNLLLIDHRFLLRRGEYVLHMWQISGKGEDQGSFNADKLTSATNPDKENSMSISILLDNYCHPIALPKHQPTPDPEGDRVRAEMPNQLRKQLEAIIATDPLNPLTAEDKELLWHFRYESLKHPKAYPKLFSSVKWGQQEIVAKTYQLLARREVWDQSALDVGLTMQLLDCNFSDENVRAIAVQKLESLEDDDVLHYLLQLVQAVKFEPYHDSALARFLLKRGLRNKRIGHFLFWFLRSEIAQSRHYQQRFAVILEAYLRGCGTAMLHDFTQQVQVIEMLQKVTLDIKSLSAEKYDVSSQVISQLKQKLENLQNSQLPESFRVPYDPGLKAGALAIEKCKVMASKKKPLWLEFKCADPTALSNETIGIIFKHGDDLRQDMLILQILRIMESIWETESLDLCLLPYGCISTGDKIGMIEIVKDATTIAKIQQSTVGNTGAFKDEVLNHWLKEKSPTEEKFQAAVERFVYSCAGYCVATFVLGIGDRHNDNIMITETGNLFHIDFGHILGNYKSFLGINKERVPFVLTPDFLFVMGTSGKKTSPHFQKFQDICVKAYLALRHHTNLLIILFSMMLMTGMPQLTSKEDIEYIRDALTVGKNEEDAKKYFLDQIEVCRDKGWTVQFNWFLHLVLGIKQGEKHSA
# T1 sequence (Q12809 whole entry): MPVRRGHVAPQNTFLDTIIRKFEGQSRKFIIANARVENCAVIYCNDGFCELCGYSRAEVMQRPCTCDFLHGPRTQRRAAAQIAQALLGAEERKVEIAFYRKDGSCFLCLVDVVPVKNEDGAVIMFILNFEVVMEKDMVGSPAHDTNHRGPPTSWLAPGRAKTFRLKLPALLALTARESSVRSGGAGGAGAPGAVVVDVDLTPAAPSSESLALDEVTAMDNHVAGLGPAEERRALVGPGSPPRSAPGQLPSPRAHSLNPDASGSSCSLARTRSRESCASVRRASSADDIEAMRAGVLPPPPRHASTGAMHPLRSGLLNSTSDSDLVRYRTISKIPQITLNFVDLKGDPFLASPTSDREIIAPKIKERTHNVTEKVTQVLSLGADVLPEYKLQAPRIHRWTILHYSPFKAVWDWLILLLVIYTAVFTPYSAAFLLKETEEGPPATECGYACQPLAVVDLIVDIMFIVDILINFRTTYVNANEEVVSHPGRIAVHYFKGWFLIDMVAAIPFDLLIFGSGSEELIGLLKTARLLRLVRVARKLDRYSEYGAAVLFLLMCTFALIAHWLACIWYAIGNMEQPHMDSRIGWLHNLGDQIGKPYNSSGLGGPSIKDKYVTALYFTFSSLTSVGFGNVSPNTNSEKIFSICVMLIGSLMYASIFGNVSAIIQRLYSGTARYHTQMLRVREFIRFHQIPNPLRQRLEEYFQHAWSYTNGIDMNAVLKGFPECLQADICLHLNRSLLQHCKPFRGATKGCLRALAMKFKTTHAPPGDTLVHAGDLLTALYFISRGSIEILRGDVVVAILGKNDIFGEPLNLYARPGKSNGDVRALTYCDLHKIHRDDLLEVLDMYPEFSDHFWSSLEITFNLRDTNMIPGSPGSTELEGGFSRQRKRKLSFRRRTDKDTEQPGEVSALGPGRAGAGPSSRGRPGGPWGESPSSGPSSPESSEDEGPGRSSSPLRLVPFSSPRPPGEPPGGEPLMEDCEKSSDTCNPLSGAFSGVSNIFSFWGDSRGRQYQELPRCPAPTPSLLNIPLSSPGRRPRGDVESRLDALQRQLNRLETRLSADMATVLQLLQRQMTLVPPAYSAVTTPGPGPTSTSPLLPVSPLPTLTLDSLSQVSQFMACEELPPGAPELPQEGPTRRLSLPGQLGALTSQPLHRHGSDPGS
# T2 sequence (P08684 whole entry): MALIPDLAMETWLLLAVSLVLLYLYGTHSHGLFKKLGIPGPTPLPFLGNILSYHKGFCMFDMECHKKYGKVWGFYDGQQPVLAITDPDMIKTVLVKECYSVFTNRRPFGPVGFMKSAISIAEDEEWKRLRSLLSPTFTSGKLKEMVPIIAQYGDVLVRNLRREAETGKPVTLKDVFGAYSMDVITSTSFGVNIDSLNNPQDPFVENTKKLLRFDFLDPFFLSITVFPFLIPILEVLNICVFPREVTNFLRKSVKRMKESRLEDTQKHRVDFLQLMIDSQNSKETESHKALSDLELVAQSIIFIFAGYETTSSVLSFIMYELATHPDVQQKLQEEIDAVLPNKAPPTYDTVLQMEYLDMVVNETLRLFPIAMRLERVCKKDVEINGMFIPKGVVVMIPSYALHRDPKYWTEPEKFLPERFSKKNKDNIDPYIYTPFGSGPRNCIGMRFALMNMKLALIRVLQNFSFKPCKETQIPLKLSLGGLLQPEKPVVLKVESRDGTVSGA
Structure (SMILES),inhibition at 10 µM (PI3Kγ) [%],hLMS_ox(at 0.5 μM) % [1] [%],"inhibition at 10 min, 1 µM (hERG channel (IKr)) [%]",IC50 at 15 min [2] [µM],MBI (CYP3A4),inhibition at 1 µM (AKT phosphorylation) [%]
COc1cc(C2CCc3nc(NC(=O)Nc4ccccc4C(=O)NC(C)C)sc3C2)nc(OC)n1 (centres unmarked) [Compound I-60],≥ 95,81.9,3.6,> 20,,
COc1cc(N2CCc3nc(NC(=O)Nc4ccccc4C(=O)NCC#N)sc3C2)nc(OC)n1 [Compound I-90],,83.4,,≥ 10,"(−) (When 3 μmol/L or less, the compound is shown as (−))",
COc1nc(Cl)cc(N2CCc3nc(NC(=O)Nc4ccccc4C(=O)NC(C)C(F)(F)F)sc3C2)n1 (centres unmarked) [Compound I-176],,,0.4,≥ 10,"(−) (When 3 μmol/L or less, the compound is shown as (−))",83
COc1nc(Cl)cc(N2CCc3nc(NC(=O)Nc4ccccc4C(=O)NC4CCOC4)sc3C2)n1 (centres unmarked) [Compound I-175],≥ 95,,1.6,≥ 10,,88
COc1cc(N2CCc3nc(NC(=O)Nc4cn(C)nc4C(=O)NC(CO)CO)sc3C2)nc(OC)n1 [Compound I-170],≥ 95,91.6,,> 20,,80
COc1cc(N2CCc3nc(NC(=O)Nc4ccccc4C(=O)NC(C)C)sc3C2)cc(OC)n1 [Compound I-63],≥ 95,80.1,2.7,> 20,,
CC(C)NC(=O)c1ccccc1NC(=O)Nc1nc2c(s1)CN(c1cncc(C#N)c1)CC2 [Compound I-188],80,,3.9,> 20,,84
COc1cc(N2CCc3nc(NC(=O)Nc4ccccc4C(=O)NCCC#N)sc3C2)nc(OC)n1 [Compound I-89],≥ 95,93.6,,≥ 10,"(−) (When 3 μmol/L or less, the compound is shown as (−))",
CC(C)NC(=O)c1ccccc1NC(=O)Nc1nc2c(s1)CN(c1ccc(C#N)cc1)CC2 [Compound I-209],≥ 95,,,≥ 10,"(−) (When 3 μmol/L or less, the compound is shown as (−))",
Cc1cc(N2CCc3nc(NC(=O)Nc4ccccc4C(=O)NCC#N)sc3C2)nc(Cl)n1 [Compound I-172],≥ 95,98,,≥ 10,"(−) (When 3 μmol/L or less, the compound is shown as (−))",
O=C(Nc1nc2c(s1)CN(c1cncc(C(F)(F)F)c1)CC2)Nc1ccccc1C(=O)NC(CO)CO [Compound I-173],71,,,≥ 10,"(−) (When 3 μmol/L or less, the compound is shown as (−))",
